In PMC10303200 (ACS Central Science, 2023):
“And” between values parts separate entries of the source, which are not always exact repeats. Equal entries are not always repeated. Where two headings read alike, the source gives them in different places.

Assays:
[1] = target: T1, fCD22 (fragment of human Siglec 2) (Homo sapiens, UniProt P20273); conditions: literature value; ref S3; cited from earlier work
T1 construct: A fragment of human Siglec 2 (fCD22, residue 1–332, MW 37.4 kDa); made in house; host or cells: wild-type CHO cells
T1 sequence (P20273 20-332): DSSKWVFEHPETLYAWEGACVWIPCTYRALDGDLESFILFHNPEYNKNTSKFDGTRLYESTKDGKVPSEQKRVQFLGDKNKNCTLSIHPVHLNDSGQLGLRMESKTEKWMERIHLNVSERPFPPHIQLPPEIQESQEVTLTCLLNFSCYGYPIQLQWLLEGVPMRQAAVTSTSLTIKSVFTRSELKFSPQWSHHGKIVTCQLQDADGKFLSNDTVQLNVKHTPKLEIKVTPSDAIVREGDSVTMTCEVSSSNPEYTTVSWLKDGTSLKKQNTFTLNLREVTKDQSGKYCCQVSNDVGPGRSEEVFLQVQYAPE

[2] = target: T1, fCD22 (fragment of human Siglec 2); assay: COIN-nMS affinity measurement; format: binding
[3] = target: T1, fCD22 (fragment of human Siglec 2); assay: direct nMS affinity measurement; format: binding; conditions: individual glycan; ammonium acetate 200 mM, pH 6.9
Sig7-Fc = Sig7-Fc (Homo sapiens, UniProt Q9Y286); assay: COIN-CaR-nMS with purified oligosaccharides listed beside the library glycans, 200 mM ammonium acetate, pH 6.9.; format: binding; design: gene SIGLEC7; residues 1-345, human IgG1 Fc fusion and C-terminal His6, from CHO cells, MW 150 kDa; conditions: SD; read-out: Kd, purified oligosaccharides in Tables S12, S13, S18, S19
Chain of Sig7-Fc (Q9Y286 1-345): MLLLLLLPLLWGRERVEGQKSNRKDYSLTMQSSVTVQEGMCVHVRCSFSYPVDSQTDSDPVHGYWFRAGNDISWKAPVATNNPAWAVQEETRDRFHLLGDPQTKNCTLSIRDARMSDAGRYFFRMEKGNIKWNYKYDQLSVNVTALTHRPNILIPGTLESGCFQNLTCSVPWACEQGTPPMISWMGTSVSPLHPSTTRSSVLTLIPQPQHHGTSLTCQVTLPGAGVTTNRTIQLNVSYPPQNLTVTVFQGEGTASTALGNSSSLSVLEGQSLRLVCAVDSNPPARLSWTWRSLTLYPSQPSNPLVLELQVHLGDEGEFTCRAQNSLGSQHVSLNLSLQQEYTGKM

MAA [4] = target: T2, MAA; assay: as above; format: binding; conditions: SD; read-out: Kd, purified oligosaccharides in Tables S12, S13, S18, S19
T2 construct: commercial lectin mixture

GAL-7 [5] = target: T3, GAL-7 (Homo sapiens, UniProt P47929); assay: Direct native ESI-MS of the GAL-7 homodimer with a mixture of ten glycans (G2, G5-G13), 200 mM ammonium acetate, pH 6.9.; format: binding; conditions: SD, n = 8; read-out: Kd (nMS), Table S4
T3 construct: gene LGALS7; homodimer (monomer MW 14.94 kDa)
T3 sequence (P47929 whole entry): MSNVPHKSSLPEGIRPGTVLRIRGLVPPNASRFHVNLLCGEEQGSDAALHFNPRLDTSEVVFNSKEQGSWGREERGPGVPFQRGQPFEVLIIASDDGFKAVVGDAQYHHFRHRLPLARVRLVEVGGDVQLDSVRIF

GAL-3C [6] = target: T4, GAL-3C (Homo sapiens, UniProt P17931); assay: Literature reference values quoted in the results table, conditions not restated.; format: binding; design: gene LGALS3; C-terminal carbohydrate recognition domain fragment, residues 107-250; conditions: SD; read-out: Kd (Literature), Table S2; cited from earlier work
T4 sequence (P17931 107-250): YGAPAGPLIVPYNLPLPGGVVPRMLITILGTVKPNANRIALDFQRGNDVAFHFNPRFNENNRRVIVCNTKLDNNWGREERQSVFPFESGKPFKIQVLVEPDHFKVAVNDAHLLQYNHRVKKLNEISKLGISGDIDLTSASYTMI

GAL-3C [7] = target: T4, GAL-3C; assay: COIN-nMS, global fit over several glycan concentrations, 200 mM ammonium acetate, pH 6.9, 25 °C.; format: binding; design: gene LGALS3; C-terminal carbohydrate recognition domain fragment, residues 107-250; conditions: SD; read-out: Kd (COIN-nMS, global fit), Table S2
GAL-3C [8] = target: T4, GAL-3C; assay: Direct native ESI-MS with a mixture of ten glycans (G2, G5-G13), 200 mM ammonium acetate, pH 6.9.; format: binding; design: gene LGALS3; C-terminal carbohydrate recognition domain fragment, residues 107-250; conditions: SD, n = 8; read-out: Kd (nMS), Table S3
GAL-3C [9] = target: T4, GAL-3C; assay: Direct native ESI-MS at known concentrations with single glycans, 200 mM ammonium acetate, pH 6.9, 25 °C.; format: binding; design: gene LGALS3; C-terminal carbohydrate recognition domain fragment, residues 107-250; conditions: SD; read-out: Kd (nMS), Table S2
DC-SIGN CRD [10] = target: T5, DC-SIGN CRD (Homo sapiens, UniProt Q9NNX6); assay: Direct native ESI-MS (submicron emitters) with a mixture of ten glycans (G2, G5, G10, G14-G20), 200 mM ammonium acetate with 2.5 mM calcium salt, pH 7.4.; format: binding; design: gene CD209; carbohydrate recognition domain, residues 250-404, MW 17 794 Da; conditions: SD, n = 6; read-out: Kd (nMS), Table S5
T5 sequence (Q9NNX6 250-404): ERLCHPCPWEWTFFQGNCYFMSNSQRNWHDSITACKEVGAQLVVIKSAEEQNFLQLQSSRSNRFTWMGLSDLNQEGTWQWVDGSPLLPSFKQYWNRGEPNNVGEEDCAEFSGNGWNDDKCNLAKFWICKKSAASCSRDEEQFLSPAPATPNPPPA

DC-SIGN CRD [11] = target: T5, DC-SIGN CRD; assay: COIN-nMS (submicron emitters) with a mixture of ten glycans (G2, G5, G10, G14-G20), 200 mM ammonium acetate with 2.5 mM calcium salt, pH 7.4.; format: binding; design: gene CD209; carbohydrate recognition domain, residues 250-404, MW 17 794 Da; conditions: SD, n = 6; read-out: Kd (COIN-nMS), Table S5
GAL-7 [12] = target: T3, GAL-7; assay: COIN-nMS of the GAL-7 homodimer with a mixture of ten glycans (G2, G5-G13), 200 mM ammonium acetate, pH 6.9.; format: binding; conditions: SD, n = 8; read-out: Kd (COIN-nMS), Table S4
GAL-3C [13] = target: T4, GAL-3C; assay: COIN-nMS with a mixture of ten glycans (G2, G5-G13), 200 mM ammonium acetate, pH 6.9.; format: binding; design: gene LGALS3; C-terminal carbohydrate recognition domain fragment, residues 107-250; conditions: SD, n = 8; read-out: Kd (COIN-nMS), Table S3
GAL-3C [14] = target: T4, GAL-3C; assay: COIN-nMS (slow mixing in nanoESI emitter, fit of eq 12) at one glycan concentration, 200 mM ammonium acetate, pH 6.9, 25 °C.; format: binding; design: gene LGALS3; C-terminal carbohydrate recognition domain fragment, residues 107-250; conditions: SD; read-out: Kd (COIN-nMS, individual experiments), Table S2
GAL-7 [15] = target: T3, GAL-7; assay: COIN-nMS, global fit over several glycan concentrations, 200 mM ammonium acetate, pH 6.9, 25 °C.; format: binding; conditions: SD; read-out: Kd (COIN-nMS, global fit), Table S2
GAL-7 [16] = target: T3, GAL-7; assay: COIN-nMS (slow mixing in nanoESI emitter, fit of eq 12) at one glycan concentration, 200 mM ammonium acetate, pH 6.9, 25 °C.; format: binding; conditions: SD; read-out: Kd (COIN-nMS, individual experiments), Table S2
GAL-7 [17] = target: T3, GAL-7; assay: Direct native ESI-MS at known concentrations with single glycans, 200 mM ammonium acetate, pH 6.9, 25 °C.; format: binding; conditions: SD; read-out: Kd (nMS), Table S2
MAA [18] = target: T2, MAA; assay: Isothermal titration calorimetry, 200 mM ammonium acetate, pH 6.8-6.9, 25 °C.; format: binding; conditions: SD; read-out: Kd (Literature), Table S6, determined by ITC
MAA [19] = target: T2, MAA; assay: COIN-CaR-nMS (collisional release of bound glycan, fit of eq 13) with single purified glycans, 200 mM ammonium acetate, pH 6.9.; format: binding; conditions: SD; read-out: Kd (COIN-CaR-nMS), Table S6
GAL-7 homodimer [20] = target: T6, GAL-7 homodimer (Homo sapiens, UniProt P47929); assay: direct nMS affinity measurement; format: binding; design: key: NB: No binding detected; conditions: glycans present as a mixture (G2, G5-G13); pH 6.9
T6 construct: made in house
T6 sequence (P47929 whole entry): as the sequence (P47929 whole entry) above

GAL-7 homodimer [21] = target: T6, GAL-7 homodimer; assay: COIN-nMS affinity measurement; format: binding; design: key: NB: No binding detected; conditions: glycans present as a mixture (G2, G5-G13); average of eight measurements; pH 6.9
GAL-3C [22] = target: T4, GAL-3C; assay: direct nMS (ESI-MS) affinity measurement at known concentrations; format: binding; design: human Galectin-3 (GAL-3C, residues 107–250, molecular weight (MW) 16 327 Da); key: NB: No binding detected; conditions: glycans present as a mixture (G2, G5-G13); pH 6.9
GAL-3C [23] = target: T4, GAL-3C; assay: COIN-nMS affinity measurement; format: binding; design: human Galectin-3 (GAL-3C, residues 107–250, molecular weight (MW) 16 327 Da); key: NB: No binding detected; conditions: glycans present as a mixture (G2, G5-G13); average of eight measurements; pH 6.9

CC(=O)NC1C(O)OC(CO)C(OC2OC(CO)C(OC3OC(COC4OC(CO)C(O)C(O)C4OC4OC(CO)C(OC5OC(COC6(C(=O)O)CC(O)C(NC(C)=O)C(C(O)C(O)CO)O6)C(O)C(O)C5O)C(O)C4NC(C)=O)C(O)C(OC4OC(CO)C(O)C(O)C4OC4OC(CO)C(OC5OC(COC6(C(=O)O)CC(O)C(NC(C)=O)C(C(O)C(O)CO)O6)C(O)C(O)C5O)C(O)C4NC(C)=O)C3O)C(O)C2NC(C)=O)C1O [Glycan G4, [α-D-Neu5Ac-(2→6)-β-D-Gal-(1→4)-β-D-GlcNAc-(1→2)-α-D-Man-(1→3)]-[α-D-Neu5Ac-(2→6)-β-D-Gal-(1→4)-β-D-GlcNAc-(1→2)-α-D-Man-(1→6)]-β-D-Man(1→4)-β-D-GlcNAc-(1→4)-D-GlcNAc]
Kd [1]: 13.1 ± 0.6 µM
Kd ([2]; global fit of data sets at 30, 50, 75 µM glycan, read-out: Kd (COIN-nMS, global fit)): 23.5 ± 1.4 µM
Kd ([2]; glycan concentration 30 µM, pH 6.9, read-out: Kd (COIN-nMS, individual experiments)): 25.4 ± 2.2 µM
Kd ([2]; glycan concentration 50 µM, pH 6.9, read-out: Kd (COIN-nMS, individual experiments)): 37.5 ± 0.5 µM
Kd ([2]; glycan concentration 75 µM, pH 6.9, read-out: Kd (COIN-nMS, individual experiments)): 23.4 ± 0.7 µM
Kd [3]: 13.1 ± 0.6 µM

CC(=O)N[C@H]1[C@H]([C@H](O)[C@H](O)CO)O[C@@](O[C@H]2[C@@H](O)[C@@H](CO)O[C@@H](O[C@H]3[C@H](O)[C@@H](NC(C)=O)C(O)O[C@@H]3CO)[C@@H]2O)(C(=O)O)C[C@@H]1O (stereo partly drawn) [G25, 3SLN, α-D-Neu5Ac-(2→3)-β-D-Gal-(1→4)-D-GlcNAc]
Kd (Sig7-Fc): 267 µM
Kd (MAA [4]): 2.14 µM

C[C@@H]1O[C@@H](O[C@H]2[C@H](O[C@H]3[C@H](O)[C@@H](O)C(O)O[C@@H]3CO)O[C@H](CO)[C@H](O)[C@@H]2O)[C@@H](O)[C@H](O)[C@@H]1O (stereo partly drawn) [G2, α-L-Fuc-(1→2)-β-D-Gal-(1→4)-D-Glc (2'-fucosyllactose)]
Kd (GAL-7 [5]): 237 µM
Kd (GAL-3C [6]): 47.6 µM
Kd (GAL-3C [7]): 23.2 µM
Kd (GAL-3C [8]): 166 µM
Kd (GAL-3C [9]): 26.6 µM
Kd (DC-SIGN CRD [10]): 2100 µM
Kd (DC-SIGN CRD [11]): 660 µM
Kd (GAL-7 [12]): 241 µM
Kd (GAL-3C [13]): 156 µM
Kd (GAL-3C [14]): 27 µM and 24.8 µM and 28 µM

CC(=O)N[C@H]1[C@H](O[C@H]2[C@@H](O)[C@@H](CO)O[C@@H](O[C@H]3[C@H](O[C@@H]4O[C@@H](C)[C@@H](O)[C@@H](O)[C@@H]4O)[C@@H](O)C(O)O[C@@H]3CO)[C@@H]2O)O[C@H](CO)[C@@H](O[C@@H]2O[C@H](CO)[C@H](O)[C@H](O)[C@H]2O)[C@@H]1O[C@@H]1O[C@@H](C)[C@@H](O)[C@@H](O)[C@@H]1O (stereo partly drawn) [G3, Gal-(1→4)-[α-L-Fuc(1→3)]-β-D-GlcNAc-(1→3)-β-D-Gal(1→4)[α-L-Fuc(1→3)]-D-Glc]
Kd (GAL-7 [15]): 521 µM
Kd (GAL-7 [16]): 524 µM and 507 µM and 537 µM
Kd (GAL-7 [17]): 518 µM

CC(=O)N[C@H]1[C@H]([C@H](O)[C@H](O)CO)O[C@@](O[C@H]2[C@@H](O)[C@@H](CO)O[C@@H](O[C@H]3[C@H](O)[C@@H](O)C(O)O[C@@H]3CO)[C@@H]2O)(C(=O)O)C[C@@H]1O (stereo partly drawn) [G22, 3SL, 3'-sialyllactose, α-D-Neu5Ac-(2→3)-β-D-Gal-(1→4)-D-Glc]
Kd (MAA [18]): 3.6 µM
Kd (Sig7-Fc): 277 µM
Kd (MAA [19]): 3.5 µM

β-D-Gal(1→3)-[α-L-Fuc(1→4)]-β-D-GlcNAc(1→3)-β-D-Gal(1→4)-[α-L-Fuc(1→3)]-β-D-Glc [Glycan G11]
Kd (nMS) (GAL-7 homodimer [20]): NB
Kd (COIN-nMS) (GAL-7 homodimer [21]): NB and do not bind
Kd (nMS) (GAL-3C [22]): NB
Kd (COIN-nMS) (GAL-3C [23]): NB and do not bind
